# Reference: paper PMC11345399 (The Journal of Biological Chemistry, 2024)
# “And” between values parts separate entries of the source, which are not always exact repeats. Equal values may be shown once.
# Assays:
# [1] = molecular target: human mitochondrial RNA polymerase (h-mtRNAP) (Homo sapiens, UniProt O00411); assay type: biochemical
# [2] = molecular target: T1, HRV-16 RdRp (Human rhinovirus 16, UniProt Q82122); assay type: biochemical
# [3] = tested on: EV-71 RdRp; assay type: biochemical
# [4] = molecular target: SARS-CoV-2 RdRp (Severe acute respiratory syndrome coronavirus 2, UniProt P0DTD1); assay type: biochemical
# [5] = molecular target: MERS-CoV RdRp (Middle East respiratory syndrome-related coronavirus, UniProt K9N7C7); assay type: biochemical
# [6] = molecular target: T1, HRV-16 RdRp; assay type: biochemical; remark: listed apart in the source
# [7] = tested on: EV-71 RdRp; assay type: biochemical; remark: listed apart in the source
# [8] = molecular target: RSV RdRp (Human respiratory syncytial virus A, UniProt P28887); assay type: biochemical
# [9] = molecular target: HMPV RdRp (Human metapneumovirus, UniProt Q6WB93); assay type: biochemical
# [10] = molecular target: HPIV-3 RdRp (Human parainfluenza 3 virus, UniProt P12577); assay type: biochemical
# [11] = molecular target: PIV-5 RdRp (Parainfluenza virus 5, UniProt Q88434); assay type: biochemical
# [12] = molecular target: T1, HRV-16 RdRp; assay type: biochemical; remark: listed apart in the source
# [13] = tested on: EV-71 RdRp; assay type: biochemical; remark: listed apart in the source
# [14] = molecular target: SARS-CoV-2 RdRp complex (Severe acute respiratory syndrome coronavirus 2, UniProt P0DTD1)
# [15] = molecular target: MERS-CoV RdRp complex (Middle East respiratory syndrome-related coronavirus, UniProt K9N7C7)
# [16] = molecular target: HRV-16 RdRp (3Dpol) (Human rhinovirus 16, UniProt Q82122)
# [17] = molecular target: EV-71 RdRp (3Dpol) (Enterovirus A71, UniProt E5RPG3)
# [18] = molecular target: RSV RdRp complex (Human respiratory syncytial virus A, UniProt P28887)
# [19] = molecular target: HMPV RdRp complex (Human metapneumovirus, UniProt Q6WB93)
# [20] = molecular target: PIV-5 RdRp complex (Parainfluenza virus 5, UniProt Q88434)
# human mitochondrial RNA polymerase (h-mtRNAP), sequence (O00411 42-1230 limits assumed): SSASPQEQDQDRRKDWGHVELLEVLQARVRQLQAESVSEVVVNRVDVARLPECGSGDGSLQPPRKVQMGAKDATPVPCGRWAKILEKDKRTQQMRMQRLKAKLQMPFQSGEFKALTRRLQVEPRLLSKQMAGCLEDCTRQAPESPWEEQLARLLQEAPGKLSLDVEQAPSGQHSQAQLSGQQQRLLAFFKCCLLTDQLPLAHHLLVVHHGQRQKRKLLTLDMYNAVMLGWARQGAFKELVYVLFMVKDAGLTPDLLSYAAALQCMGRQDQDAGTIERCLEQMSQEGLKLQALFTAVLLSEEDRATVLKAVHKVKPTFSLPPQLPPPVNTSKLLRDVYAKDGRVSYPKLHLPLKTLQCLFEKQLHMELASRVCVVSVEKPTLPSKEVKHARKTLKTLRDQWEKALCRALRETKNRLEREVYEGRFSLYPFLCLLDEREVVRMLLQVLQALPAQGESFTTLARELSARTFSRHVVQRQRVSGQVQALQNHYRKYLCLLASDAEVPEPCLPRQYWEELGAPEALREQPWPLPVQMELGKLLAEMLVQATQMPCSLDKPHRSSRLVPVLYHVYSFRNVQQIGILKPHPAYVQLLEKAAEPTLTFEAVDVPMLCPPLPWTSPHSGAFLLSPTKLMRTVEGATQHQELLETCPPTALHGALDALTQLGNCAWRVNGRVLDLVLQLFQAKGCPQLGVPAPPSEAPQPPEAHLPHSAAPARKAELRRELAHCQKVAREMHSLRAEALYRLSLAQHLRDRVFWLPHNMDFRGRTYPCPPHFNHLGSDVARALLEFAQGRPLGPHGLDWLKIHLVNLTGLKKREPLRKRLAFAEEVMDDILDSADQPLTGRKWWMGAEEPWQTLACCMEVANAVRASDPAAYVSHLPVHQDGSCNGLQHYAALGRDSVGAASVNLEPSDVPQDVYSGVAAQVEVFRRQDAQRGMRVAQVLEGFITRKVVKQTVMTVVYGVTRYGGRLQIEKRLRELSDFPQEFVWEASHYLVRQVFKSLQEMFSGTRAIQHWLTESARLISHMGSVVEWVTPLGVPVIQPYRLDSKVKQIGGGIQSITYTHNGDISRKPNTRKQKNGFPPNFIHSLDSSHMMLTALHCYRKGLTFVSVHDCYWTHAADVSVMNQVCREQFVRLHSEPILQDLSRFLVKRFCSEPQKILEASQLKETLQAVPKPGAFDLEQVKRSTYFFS
smiles,measurement,setting,value
N#C[C@]1(COP(=O)(O)OP(=O)(O)OP(=O)(O)O)O[C@@H](c2ccc3c(N)ncnn23)[C@H](O)[C@@H]1O [GS-646939],"Selectivity (fold), Vmax/Km ATP over Vmax/Km analog",[1],1538 fold
same,CI average (CIavg) ± standard deviation,[2],0.04
same,Preference for GS-646939 over GS-443902 under competitive conditions,[2],greater than 30 fold
same,CI average (CIavg) ± standard deviation,[3],0.07
same,Preference for GS-646939 over GS-443902 under competitive conditions,[3],greater than 30 fold
same,Vmax (product fraction) of UTP incorporation at i + 1,[4],0.79 ± 0.036
same,Vmax (product fraction) of UTP incorporation at i + 1,[5],0.91 ± 0.10
same,Pattern of inhibition of RNA primer extension after incorporation at position i,[6],immediate chain-termination
same,Vmax (product fraction) of UTP incorporation at i + 1,[6],0.83 ± 0.012
same,Pattern of inhibition of RNA primer extension after incorporation at position i,[7],immediate chain-termination
same,Vmax (product fraction) of UTP incorporation at i + 1,[7],0.81 ± 0.017
same,Pattern of inhibition of RNA primer extension after incorporation at position i,[8],immediate chain termination
same,Vmax (product fraction) of UTP incorporation at i + 1,[8],0.15 ± 0.0029
same,Pattern of inhibition of RNA primer extension after incorporation at position i,[9],immediate chain termination
same,Vmax (product fraction) of UTP incorporation at i + 1,[9],0.087 ± 0.030
same,Pattern of inhibition of RNA primer extension after incorporation at position i,[10],immediate chain termination
same,Vmax (product fraction) of UTP incorporation at i + 1,[10],0.61 ± 0.0099
same,Pattern of inhibition of RNA primer extension after incorporation at position i,[11],immediate chain termination
same,Vmax (product fraction) of UTP incorporation at i + 1,[11],0.058 ± 0.080
same,Inhibition (fold) vs Template A,[12],~2 fold and 2.0 fold
same,UTP,[12],1.0 µM
same,Inhibition (fold) of UTP incorporation across embedded analog,[13],~9 fold
same,"Selectivity (fold), Vmax/Km ATP over Vmax/Km analog",[14],1.37 fold
same,"Selectivity (fold), Vmax/Km ATP over Vmax/Km analog",[15],1.17 fold
same,Incorporated more efficiently than natural ATP counterpart,[16],20-50 fold
same,Incorporated more efficiently than natural ATP counterpart,[17],20-50 fold
same,"Selectivity (fold), Vmax/Km ATP over Vmax/Km analog",[18],1.58 fold
same,"Selectivity (fold), Vmax/Km ATP over Vmax/Km analog",[19],1.73 fold
same,"Selectivity (fold), Vmax/Km ATP over Vmax/Km analog",[20],5.05 fold
